The target in test [1] is T1, IDO1 (Homo sapiens (Human), UniProt P14902). Briefly: IDO1 Cellular Assay in Hela Cells Stimulated with IFNγ. The format is cell-based. As to conditions: about 48 hours, read-out: IDO1 HELA Cell Assay, IC50. As to the method:
Hela cells were cultured in complete Hela culture medium (90% EMEM, 10% heat-inactivated fetal bovine serum) and expanded to about 1×10^9 cells. The cells were then collected and frozen down at 10×10^6 cells/vial in 1 mL frozen medium (90% complete Hela culture medium, 10% DMSO)
Compounds to be tested were serially diluted in ten 3-fold steps in DMSO starting from 10 mM DMSO stocks in Echo low volume plate(s). Compound dilutions or DMSO alone were then dispensed from the dilution plate(s) into Greiner black 384-well assay plate(s) (catalog #781086, 50 nL/well) using an Echo 550 acoustic liquid handler (Labcyte).
Frozen Hela cells were thawed and transferred into Hela assay medium (99% complete Hela culture medium, 1% Pen/Strep) with 20 mL medium/vial of cells. The cells were spun down at 250 g in a table top centrifuge for 5 min and suspended in same volume of Hela assay medium. The cells were then counted and adjusted to a density of 2×10^5 cells/ml in Hela assay medium. Sterile L-tryptophan were added to the cells with final concentration of 300 uM L-tryptophan. A small aliquot (2 mL/plate) of Hela cells were set aside and were not treated with IFNγ, to serve as the Max-E control. The rest of Hela cells were added with sterile IFNγ (Cat #285-IF, R & D systems) with a final concentration of 100 ng/mL.
Hela cells with and without IFNγ were dispensed to the respective wells of 384-well assay plates containing the compounds. The plates were incubated for about 48 hours at a 37° C., 5% CO2 incubator. Afterwards, 12 μL of 0.5 M methyl isonipecotate in dimethyl sulfoxide were added into each well and the plates were sealed and incubated at 37° C. without CO2 overnight. The plates were centrifuged for 1 min at 200×g. The resulting fluorescence was measured in a Spectramax plate reader (Molecular Devices) with a 400 nm excitation filter and a 510 nm emission filter.
The fluorescence intensity of each well was corrected for the background observed in wells with non-IFNγ-treated cells and was expressed as a fraction of the intensity observed in wells of IFNγ-treated cells and DMSO only. Potencies were calculated by linear least squares fit to the four parameter logistic IC50 equation.
Target sequence in this assay (P14902 whole entry): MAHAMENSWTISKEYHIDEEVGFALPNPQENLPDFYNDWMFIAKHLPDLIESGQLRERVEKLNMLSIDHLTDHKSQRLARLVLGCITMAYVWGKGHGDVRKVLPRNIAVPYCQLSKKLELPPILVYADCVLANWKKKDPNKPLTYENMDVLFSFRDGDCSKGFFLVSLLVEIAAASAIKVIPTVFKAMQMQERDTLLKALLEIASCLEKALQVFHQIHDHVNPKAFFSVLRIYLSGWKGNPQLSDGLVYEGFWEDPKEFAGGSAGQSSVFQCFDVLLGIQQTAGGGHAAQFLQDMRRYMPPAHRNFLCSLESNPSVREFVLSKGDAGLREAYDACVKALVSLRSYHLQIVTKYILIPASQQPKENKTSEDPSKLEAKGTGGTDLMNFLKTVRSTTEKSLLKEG

Test [2] has as its target T1, IDO1. The experiment in a line: IDO1 Enzyme Assay. It is filed as biochemical. Conditions: HIS-tagged recombinant IDO1, fluorescence readout. The method, then: Compounds to be tested were serially diluted in ten 3-fold steps in DMSO starting from 10 mM DMSO stocks. Compound dilutions or DMSO alone were then dispensed from the dilution plate into a Greiner black 384-well assay plate (catalog #781086) using an Echo 555 acoustic liquid handler (Labcyte).
HIS-tagged IDO1 protein was recombinantly expressed in Escherichia coli using ZYP5052 autoinduction media supplemented with 500 μM delta aminolevulinic acid for 48 h at 16° C. IDO1 protein was purified using Ni^2+-affinity resin and size exclusion chromatography. Purified protein was then diluted in assay buffer (50 mM Tris pH 7.0, 1% glycerol, 20 μM methylene blue, 0.05% Tween-20, 20 mM sodium ascorbate, 100 units/mL catalase to obtain a final IDO1 concentration of 40 nM. IDO1 solution […] or buffer alone ([…]) were dispensed to wells of the assay plate using a BioRAPTR liquid dispenser (Beckman Coulter). Assay plates containing compound and IDO1 enzyme were incubated at RT for 30 min. Afterwards, 10 μL of 400 μM tryptophan in assay buffer were added to each well of the assay plate using a BioRAPTR liquid dispenser. Plates were incubated at RT for 60 min and reactions were quenched by addition of 10 μL of 0.5 M methyl isonipecotate in dimethyl sulfoxide. Plates were sealed and incubated at 37° C. for 4 h or 50° C. for 2 h. The plates are allowed to cool and then centrifuged for 1 min at 1000×g. The resulting fluoresence was measured in an Envision plate reader (Perkin Elmer) with a 400/25 nm excitation filter and an 510/20 nm emission filter.
Potencies were calculated by linear least squares fit to the four parameter logistic IC50 equation.
Target sequence in this assay (P14902 whole entry, species assumed): as the sequence (P14902 whole entry) above

This is an account of results in US10927086B2, “Substituted sulfoximine compounds as indoleamine 2,3-dioxygenase (IDO) inhibitors” (Merck Sharp & Dohme Corp., priority 2017, dated 2021).

Usually IC50 stands for the midpoint of a concentration-inhibition curve.

Take `CS(=O)(CCNc1nonc1/C(=N\O)N[C@H]1Cc2ccc(F)cc21)=NCCO` (single isomer, unassigned) [Example 57]: the results for the IC50 on IDO1 [1] and at IDO1 [2] were 109 nM and 70.6 nM, respectively.
As for `CS(=O)(CCNc1nonc1/C(=N\O)N[C@H]1Cc2ccc(F)cc21)=NCCO` (single isomer, unassigned) [Example 58], the IC50 at IDO1 [1] is 123 nM; on IDO1 [2] it was 125 nM.
Taken in the same sequence, the figures for `CS(=N)(=O)N1CCO[C@@H](CNc2nonc2/C(=N\O)N[C@H]2Cc3ccc(F)cc32)C1` (single isomer, unassigned) [Example 59] were 129 nM and 120 nM.
As to `CS(=N)(=O)N1CCO[C@@H](CNc2nonc2/C(=N\O)N[C@H]2Cc3ccc(F)cc32)C1` (single isomer, unassigned) [Example 60], the half-maximal inhibitory concentration (IC50) is 329 nM on IDO1 [1] and 234 nM at IDO1 [2].
Turning to `CS(=N)(=O)N[C@H]1C[C@@H](Oc2nonc2/C(=N\O)N[C@@H]2Cc3ccc(F)cc32)C1` (single isomer, unassigned) [Example 61], the IC50 at IDO1 [1] was found to be 128 nM; on IDO1 [2], 81.6 nM.
As for `CS(=N)(=O)N[C@H]1C[C@@H](Oc2nonc2/C(=N\O)N[C@@H]2Cc3ccc(F)cc32)C1` (single isomer, unassigned) [Example 62], the 50% inhibitory concentration (IC50) on IDO1 [1] was determined as 183 nM; on IDO1 [2], 147 nM.
The like results for `CS(=N)(=O)N1CCO[C@@H](CNc2nonc2/C(=N\O)N[C@@H]2Cc3ccc(F)cc32)C1` (single isomer, unassigned) [Example 64] were, in that order, 200 nM and 83 nM.
With `CN=S(C)(=O)NCCNc1nonc1/C(=N\O)N[C@H]1Cc2ccc(F)cc21` (single isomer, unassigned) [Example 66], the results for the concentration for half-maximal inhibition (IC50) on IDO1 [1] and at IDO1 [2] were 59.6 nM and 80.8 nM, respectively.
With `CN=S(C)(=O)NCCNc1nonc1/C(=N\O)N[C@H]1Cc2ccc(F)cc21` (single isomer, unassigned) [Example 67], the IC50 at IDO1 [1] stood at 140 nM; at IDO1 [2] it was 63.7 nM.
Take `N=S(=O)(CCNc1nonc1/C(=N\O)N[C@@H]1Cc2ccc(F)cc21)C1CC1` (single isomer, unassigned) [Example 68]: the half-inhibitory concentration (IC50) at IDO1 [1] turned out to be 44.6 nM; at IDO1 [2], 59.1 nM.
The like results for `N=S(=O)(CCNc1nonc1/C(=N\O)N[C@@H]1Cc2ccc(F)cc21)C1CC1` (single isomer, unassigned) [Example 69] were, in that order, 48.5 nM and 64.6 nM.
The like results for `CS(=N)(=O)N1CC(CNc2nonc2/C(=N\O)N[C@@H]2Cc3ccc(F)cc32)C1` (single isomer, unassigned) [Example 70] were, in that order, 41.6 nM and 79.7 nM.
The like results for `CS(=N)(=O)N1CC(CNc2nonc2/C(=N\O)N[C@@H]2Cc3ccc(F)cc32)C1` (single isomer, unassigned) [Example 71] were, in that order, 72.3 nM and 80 nM.
As for `C[S@](=N)(=O)C1CC(Nc2nonc2/C(=N\O)N[C@@H]2Cc3ccc(F)cc32)C1` (single isomer, unassigned) [Example 72], the IC50 at IDO1 [1] is 63.5 nM; on IDO1 [2], 49.5 nM.
Taken in the same sequence, the figures for `C[S@](=N)(=O)C1CC(Nc2nonc2/C(=N\O)N[C@@H]2Cc3ccc(F)cc32)C1` (single isomer, unassigned) [Example 73] were 85.4 nM and 63.9 nM.
`CS(=N)(=O)C1CC2(CC(Nc3nonc3/C(=N\O)N[C@@H]3Cc4ccc(F)cc43)C2)C1` (single isomer, unassigned) [Example 74]: the values for the IC50 at IDO1 [1] and on IDO1 [2] were 32.2 nM and 73.7 nM, respectively.
As to `CS(=N)(=O)C1CC2(CC(Nc3nonc3/C(=N\O)N[C@@H]3Cc4ccc(F)cc43)C2)C1` (single isomer, unassigned) [Example 75], the IC50 at IDO1 [1] stood at 40.3 nM; at IDO1 [2], 90.4 nM.
The like results for `CS(=N)(=O)N1CC2(CC(Nc3nonc3/C(=N\O)N[C@@H]3Cc4ccc(F)cc43)C2)C1` (single isomer, unassigned) [Example 76] were, in that order, 17.6 nM and 39.9 nM.
Taken in the same sequence, the figures for `CS(=N)(=O)N1CC2(CC(Nc3nonc3/C(=N\O)N[C@@H]3Cc4ccc(F)cc43)C2)C1` (single isomer, unassigned) [Example 77] were 22.7 nM and 34.1 nM.
Taken in the same sequence, the figures for `CS(=N)(=O)CCC(O)CNc1nonc1/C(=N\O)N[C@@H]1Cc2ccc(F)cc21` (single isomer, unassigned) [Example 78] were 74.8 nM and 57.8 nM.
With `CS(=N)(=O)CCC(O)CNc1nonc1/C(=N\O)N[C@@H]1Cc2ccc(F)cc21` (single isomer, unassigned) [Example 79], the figures for the half-maximal inhibitory concentration (IC50) at IDO1 [1] and at IDO1 [2] were 91 nM and 77.6 nM, respectively.
Taken in the same sequence, the figures for `CS(=N)(=O)CCC(O)CNc1nonc1/C(=N\O)N[C@@H]1Cc2ccc(F)cc21` (single isomer, unassigned) [Example 80] were 68.5 nM and 94.5 nM.
With `CS(=N)(=O)CCC(O)CNc1nonc1/C(=N\O)N[C@@H]1Cc2ccc(F)cc21` (single isomer, unassigned) [Example 81], the IC50 at IDO1 [1] stood at 62.8 nM; on IDO1 [2], 95 nM.
Taken in the same sequence, the figures for `CS(=N)(=O)CC12CC(Nc3nonc3/C(=N\O)N[C@@H]3Cc4ccc(F)cc43)(C1)C2` (single isomer, unassigned) [Example 82] were 82 nM and 91.7 nM.
The like results for `CS(=N)(=O)CC12CC(Nc3nonc3/C(=N\O)N[C@@H]3Cc4ccc(F)cc43)(C1)C2` (single isomer, unassigned) [Example 83] were, in that order, 83.9 nM and 81.5 nM.
Turning to `CC(O)CS(=N)(=O)CCNc1nonc1/C(=N\O)N[C@@H]1Cc2ccc(F)cc21` (single isomer, unassigned) [Example 84], the figures for the half-inhibitory concentration (IC50) on IDO1 [1] and on IDO1 [2] were 55.2 nM and 56.8 nM, respectively.
Taken in the same sequence, the figures for `CC(O)CS(=N)(=O)CCNc1nonc1/C(=N\O)N[C@@H]1Cc2ccc(F)cc21` (single isomer, unassigned) [Example 85] were 49.7 nM and 49.5 nM.
Taken in the same sequence, the figures for `CC(O)CS(=N)(=O)CCNc1nonc1/C(=N\O)N[C@@H]1Cc2ccc(F)cc21` (single isomer, unassigned) [Example 86] were 40.5 nM and 47.4 nM.
For the compound `CC(O)CS(=N)(=O)CCNc1nonc1/C(=N\O)N[C@@H]1Cc2ccc(F)cc21` (single isomer, unassigned) [Example 87], the half-maximal inhibitory concentration (IC50) on IDO1 [1] stood at 51.9 nM; at IDO1 [2], 46.1 nM.
The like results for `CON=[S@](C)(=O)CCNc1nonc1/C(=N/O)NC1Cc2ccc(F)cc21` (single isomer, unassigned) [Example 90] were, in that order, 53.5 nM and 44.9 nM.
Turning to `CON=[S@](C)(=O)CCNc1nonc1/C(=N/O)NC1Cc2ccc(F)cc21` (single isomer, unassigned) [Example 91], the 50% inhibitory concentration (IC50) on IDO1 [1] is 41.8 nM; on IDO1 [2] it was 47.2 nM.
Taken in the same sequence, the figures for `N=S(N)(=O)CCCNc1nonc1/C(=N\O)NC1Cc2ccc(F)cc21` (stereo in doubt) [Example 65, 4-{[3-(S-aminosulfonimidoyl)propyl]amino}-N-[(7S)-4-fluorobicyclo[4.2.0]octa-1,3,5-trien-7-yl]-N′-hydroxy-1,2,5-oxadiazole-3-carboximidamide] were 25.7 nM and 48.2 nM.
